PubChem BioAssay AID1224 (NMMLSC, 2008)
Calls of active or inactive are those of the source. How the calls were made is not given here.

Molecular target: G-protein coupled estrogen receptor 1 (Homo sapiens) (UniProt Q99527)
Assay: fluorescent ligand displacement from GPER – cell-based, dose response (AID 1224)
Settings: GPR30-expressing cells; for EC50: fluorescent ligand binding displacement

Row | SMILES | EC50 | remaining binding, lower = displacement (at 100 µM (top of the series))
1 | O=C(O)c1ccc([N+](=O)[O-])c2c1NC(c1ccccc1)C1CC=CC21 (stereo not drawn) | 62.3 nM | 
2 | CC(=O)c1ccc2c(c1)C1C=CCC1C(c1cccc([N+](=O)[O-])c1)N2 (stereo not drawn) |  | inactive
3 | CC(=O)Oc1ccc(C2Nc3c(C(=O)O)ccc([N+](=O)[O-])c3C3C=CCC32)cc1 (stereo not drawn) | > 10000 nM (inactive) | 
